Experiment in data set [1]: not given
This is another data set of the same source.

Here are results for 21 compounds from the SangsterLogP compilation.

The logP is a log measure of how a compound divides between an organic and an aqueous phase. As for `O=C1Nc2ccccc2C1c1ccccc1` (stereo unspecified), the logP is 2.59. On the same count and under the same terms, for `c1ccc(-c2nc3ccccc3[nH]2)cc1` the value was 3.3. On the same count and under the same terms, the same measure for `O=C1C=CC(=O)C(c2ccccc2)=C1`: 1.95. Same read-out and setting: for `O=C1NC(=O)C(c2ccccc2)C(=O)N1` the value was -0.17; for `O=C1Nc2ccccc2CC1c1ccccc1` (stereo unspecified), 2.93; for `c1ccc(-c2cnc3ccccc3n2)cc1`, 3.48. Turning to `c1ccc(-c2ccncc2)cc1`, the logP came out at 2.58. Compound `c1ccc(-c2ncc3ccccc3n2)cc1` registered a logP of 3.42.

In turn, `c1ccc(-c2c[nH]nn2)cc1` yielded a logP of 1.91. The same measure, in the same setting: the same measure for `O=c1[nH]nc(-c2ccccc2)c2ccccc12`: 2.48; for `O=c1[nH]c2ccccc2cc1-c1ccccc1`: 2.99. The same measure, in the same setting: the same measure for `O=C1NC(=O)c2cc(-c3ccccc3)ccc21`: 2.97. The same measure, in the same setting: for `c1ccc(-c2nc[nH]n2)cc1` the value was 1.54; for `c1ccc(-c2nc3ccccc3o2)cc1`, 3.67; for `c1ccc(-c2nccs2)cc1`, 2.77.

Regarding `O=C1CCc2ccccc2N1`, the logP was 1.34. For the compound `c1ccc(C2CCCN2)cc1` (stereo unspecified), the logP came out at 1.89. On the same count and under the same terms, for `O=C1CC(c2ccccc2)c2ccccc2N1` (stereo unspecified) the value was 2.79; for `c1ccc(C2CCNCC2)cc1`, 2.39. Still for that read-out and setting: the same measure for `O=C1CCC(c2ccccc2)CC1`: 2.3.

Take `O=c1[nH]cnc2ccccc12`: the logP in data set [1] worked out at 0.77.
